system: COLO 205 cells; assay: MTS cytotoxicity test with COLO 205 cells; format: cell-based, human; settings: Homo sapiens, 72 h, three days with compound
Procedure: The assay, which is sold in kit form by Promega (Madison, Wis.; CellTiter 96 AQueous Non-Radioactive Cell Proliferation Assay), is based on the conversion by viable cells, but not by dead cells, of the tetrazolium salt, MTS (3-(4,5-dimethylthiazol-2-yl)-5-(3-carboxymethoxyphenyl)-2-(4-sulphophenyl)-2H-tetrazolium, inner salt), into a water-soluble colored formazan which is detected by spectrophotometry. Compounds are tested at nine concentrations, in order to determine IC50 values. For the test procedure, cells are harvested by trypsinization, washed, counted and distributed to wells of 96-well flat-bottom microtiter plates at 1000 cells per well in 200 μL of medium. In addition, one row of wells on a separate plate receives cells as above (“time 0” plate). All plates are incubated at 37° in humidified 5% CO2 in air for about 24 hr.
On day 2, compounds for test are diluted and added to wells. Compounds are dissolved in DMSO at 10 mg/mL. For each compound, nine serial 2-fold dilutions are prepared in DMSO. Ten μL of each dilution in DMSO are transferred to 100 μL of medium, mixed well, and then 5 μL of this dilution are transferred in quadruplicate to wells containing cells. The final high concentration of each compound is typically 5 μM. Plates are returned to the incubator for three days. At the time of drug addition to the experimental plates, the MTS assay is run on the “time 0” plate. This produces the “time 0 MTS value” which is related to the number of viable cells per well at the time of drug addition.
After three days of culture with test compounds (day 5 overall), the MTS assay is done on all wells of the experimental plates. The absorbance values of the quadruplicate sample wells are averaged and divided by the average of the “time 0” values. The average of control wells without drug, divided by the average “time 0” value, gives the maximal relative increase in MTS color yield due to cell growth during the final three days of culture. The average of control wells with high drug concentration, divided by the “time 0” value, gives the minimal relative color yield for cells that were completely killed. The nine values for each compound are plotted against concentration, and the concentration that produces a relative color yield half way between the maximum and minimum is taken as the IC50 value.
COLO 205 is a human colon carcinoma cell line that is used for comparative testing of the examples of this invention and several reference compounds. This line is sensitive to paclitaxel and vincristine.

In order of falling IC50:
1. Fc1cc(F)c(-c2c(Cl)nc(-n3cccc3)nc2NCC(F)(F)F)c(F)c1 [Example 18, 6-Chloro-2-(1H-pyrrol-1-yl)-N-(2,2,2-trifluoroethyl)-5-(2,4,6-trifluorophenyl)pyrimidin-4-amine]  7080 nM
2. Fc1cc(F)c(-c2c(Cl)nc(-c3ccncc3)nc2NCC(F)(F)F)c(F)c1 [Example 6, 6-Chloro-2-pyridin-4-yl-N-(2,2,2-trifluoroethyl)-5-(2,4,6-trifluorophenyl)pyrimidin-4-amine]  7050 nM
3. Fc1cc(F)c(-c2c(Cl)nc(-c3ccc[nH]3)nc2NCC(F)(F)F)c(F)c1 [Example 35, 6-Chloro-2-(1H-pyrrol-2-yl)-N-(2,2,2-trifluoroethyl)-5-(2,4,6-trifluorophenyl)pyrimidin-4-amine]  7030 nM
4. Fc1cc(F)c(-c2c(Cl)nc(-c3nccc4ccccc34)nc2NCC(F)(F)F)c(F)c1 [Example 11, 6-Chloro-2-isoquinolin-1-yl-N-(2,2,2-trifluoroethyl)-5-(2,4,6-trifluorophenyl)pyrimidin-4-amine]  4680 nM
5. Fc1cc(F)c(-c2c(Cl)nc(-c3cccnc3)nc2NCC(F)(F)F)c(F)c1 [Example 7, 6-Chloro-2-pyridin-3-yl-N-(2,2,2-trifluoroethyl)-5-(2,4,6-trifluorophenyl)pyrimidin-4-amine]  3930 nM
6. Fc1cc(F)c(-c2c(Cl)nc(-c3cccs3)nc2NCC(F)(F)F)c(F)c1 [Example 13, 6-Chloro-2-thien-2-yl-N-(2,2,2-trifluoroethyl)-5-(2,4,6-trifluorophenyl)pyrimidin-4-amine]  3460 nM
7. CN(C)CCOc1cc(F)c(-c2c(Cl)nc(N(C)C#N)nc2NCC(F)(F)F)c(F)c1 [Example 22, 4-Chloro-5-{4-[2-(dimethylamino)ethoxy]-2,6-difluorophenyl}-6-[(2,2,2-trifluoroethyl)amino]pyrimidin-2-yl(methyl)cyanamide]  532 nM
8. Fc1cc(F)c(-c2c(Cl)nc(-c3ncccn3)nc2NCC(F)(F)F)c(F)c1 [Example 5, 6-Chloro-N-(2,2,2-trifluoroethyl)-5-(2,4,6-trifluorophenyl)-2,2′-bipyrimidin-4-amine]  265 nM
9. Fc1cc(F)c(-c2c(Cl)nc(-c3ccc4ccccc4n3)nc2NCC(F)(F)F)c(F)c1 [Example 10, 6-Chloro-2-quinolin-2-yl-N-(2,2,2-trifluoroethyl)-5-(2,4,6-trifluorophenyl)pyrimidin-4-amine]  250 nM
10. Fc1cc(F)c(-c2c(Cl)nc(-c3ccco3)nc2NCC(F)(F)F)c(F)c1 [Example 14, 6-Chloro-2-(2-furyl)-N-(2,2,2-trifluoroethyl)-5-(2,4,6-trifluorophenyl)pyrimidin-4-amine]  232 nM
11. O=[N+]([O-])c1ccc(-c2nc(Cl)c(-c3c(F)cc(F)cc3F)c(NCC(F)(F)F)n2)nc1 [Example 37, 6-Chloro-2-(5-nitropyridin-2-yl)-N-(2,2,2-trifluoroethyl)-5-(2,4,6-trifluorophenyl)pyrimidin-4-amine]  132 nM
12. CN(C)CCOc1cc(F)c(-c2c(Cl)nc(-c3cnccn3)nc2NCC(F)(F)F)c(F)c1 [Example 27, 6-Chloro-5-{4-[2-(dimethylamino)ethoxy]-2,6-difluorophenyl}-2-pyrazin-2-yl-N-(2,2,2-trifluoroethyl)pyrimidin-4-amine]  128 nM
13. Fc1cc(F)c(-c2c(Cl)nc(-c3cc4ccccc4cn3)nc2NCC(F)(F)F)c(F)c1 [Example 12, 6-Chloro-2-isoquinolin-3-yl-N-(2,2,2-trifluoroethyl)-5-(2,4,6-trifluorophenyl)pyrimidin-4-amine]  119 nM
14. Cc1ccnc(-c2nc(Cl)c(-c3c(F)cc(F)cc3F)c(NCC(F)(F)F)n2)c1 [Example 36, 6-Chloro-2-(4-methylpyridin-2-yl)-N-(2,2,2-trifluoroethyl)-5-(2,4,6-trifluorophenyl)pyrimidin-4-amine]  109 nM
15. Fc1cc(F)c(-c2c(Cl)nc(-c3cnccn3)nc2NCC(F)(F)F)c(F)c1 [Example 4, 6-Chloro-2-pyrazin-2-yl-N-(2,2,2-trifluoroethyl)-5-(2,4,6-trifluorophenyl)pyrimidin-4-amine]  84 nM
16. Cn1ccnc1-c1nc(Cl)c(-c2c(F)cc(F)cc2F)c(NCC(F)(F)F)n1 [Example 34, 6-Chloro-2-(1-methyl-1H-imidazol-2-yl)-N-(2,2,2-trifluoroethyl)-5-(2,4,6-trifluorophenyl)pyrimidin-4-amine]  77 nM
17. Fc1cc(F)c(-c2c(Cl)nc(-n3cccn3)nc2NCC(F)(F)F)c(F)c1 [Example 16, 6-Chloro-2-(1H-pyrazol-1-yl)-N-(2,2,2-trifluoroethyl)-5-(2,4,6-trifluorophenyl)pyrimidin-4-amine]  53 nM
18. C[C@H](Nc1nc(-c2cnccn2)nc(Cl)c1-c1c(F)cc(F)cc1F)C(F)(F)F [Example 3, 6-Chloro-2-pyrazin-2-yl-N-[(1S)-2,2,2-trifluoro-1-methylethyl]-5-(2,4,6-trifluorophenyl)pyrimidin-4-amine]  51 nM
19. CN(C)CCCOc1cc(F)c(-c2c(Cl)nc(-c3ncccn3)nc2NCC(F)(F)F)c(F)c1 [Example 26, 6-Chloro-5-{4-[3-(dimethylamino)propoxy]-2,6-difluorophenyl}-N-(2,2,2-trifluoroethyl)-2,2′-bipyrimidin-4-amine]  49 nM
20. Fc1cc(F)c(-c2c(Cl)nc(-c3ccccn3)nc2NCC(F)(F)F)c(F)c1 [Example 8, 6-Chloro-2-pyridin-2-yl-N-(2,2,2-trifluoroethyl)-5-(2,4,6-trifluorophenyl)pyrimidin-4-amine]  39 nM
21. CN(C)CCCCOc1cc(F)c(-c2c(Cl)nc(-c3cnccn3)nc2NCC(F)(F)F)c(F)c1 [Example 28, 6-Chloro-5-{4-[4-(dimethylamino)butoxy]-2,6-difluorophenyl}-2-pyrazin-2-yl-N-(2,2,2-trifluoroethyl)pyrimidin-4-amine]  32 nM
22. C[C@H](Nc1nc(-c2ccccn2)nc(Cl)c1-c1c(F)cc(F)cc1F)C(F)(F)F [Example 9, 6-Chloro-2-pyridin-2-yl-N-[(1S)-2,2,2-trifluoro-1-methylethyl]-5-(2,4,6-trifluorophenyl)pyrimidin-4-amine]  29 nM
23. CN(C)CCCOc1cc(F)c(-c2c(Cl)nc(-c3ccc(N=[N+]=[N-])cn3)nc2NCC(F)(F)F)c(F)c1 [Example 38, 2-(5-Azidopyridin-2-yl)-6-chloro-5-{4-[3-(dimethylamino)propoxy]-2,6-difluorophenyl}-N-(2,2,2-trifluoroethyl)pyrimidin-4-amine]  23 nM
24. CN(C)CCCOc1cc(F)c(-c2c(Cl)nc(-c3cnccn3)nc2NCC(F)(F)F)c(F)c1 [Example 25, 6-Chloro-5-{4-[3-(dimethylamino)propoxy]-2,6-difluorophenyl}-2-pyrazin-2-yl-N-(2,2,2-trifluoroethyl)pyrimidin-4-amine]  22 nM
25. C[C@H](Nc1nc(-n2cccn2)nc(Cl)c1-c1c(F)cc(F)cc1F)C(F)(F)F [Example 17, 6-Chloro-2-(1H-pyrazol-1-yl)-N-[(1S)-2,2,2-trifluoro-1-methylethyl)-5-(2,4,6-trifluorophenyl)pyrimidin-4-amine]  19 nM
26. CNCCCOc1cc(F)c(-c2c(Cl)nc(-c3cnccn3)nc2N[C@@H](C)C(F)(F)F)c(F)c1 [Example 24, 6-Chloro-5-{2,6-difluoro-4-[3-(methylamino)propoxy]phenyl}-2-pyrazin-2-yl-N-[(1S)-2,2,2-trifluoro-1-methylethyl]pyrimidin-4-amine]  6.9 nM

same assay, conditions: three days with compound

Work on “4-Chloro-6-[(2,2,2-trifluoroethyl)amino]-5-(2,4,6-trifluorophenyl)pyrimidin-2-yl]ethylcyanamide [Example 2]” yielded an IC50 of 304 nM.

Reference: US7524849B2, “5-arylpyrimidines as anticancer agents” (Wyeth Holdings Corporation, priority 2003, dated 2009)
